# Test results: patent US20100130441A1, “USE OF VITAMIN B12 FOR TREATMENT OF MUCOSAL LESIONS” (priority 2007, published 2010)
# Entries after “also recorded” stand apart in the source; their conditions may differ.
# Experiments:
# [1] = cited from earlier work
# geriatric patients = settings: cited from earlier work
# [2] = system: pernicious anemia patients presenting with tobacco amblyopia (optic neuropathy); settings: four patients; parenteral; cyanocobalamin 0.25-1 mg per month, then changed to hydroxocobalamin; cited from earlier work
# [3] = series of up to 12 injections with 5 mg; cited from earlier work
# [4] = system: recurrent aphthous stomatitis (RAS) patients; settings: cited from earlier work
# [5] = system: recurrent aphthous stomatitis (RAS) patients; assay: Clinical experience: 15 RAS patients treated with vitamin B12 over four years; assay type: in vivo, human
# Description: Fifteen patients suffering from RAS were treated with vitamin B12 in our clinics over a period of four years. In most cases they have presented to the clinic with unrelated symptoms, and the oral ulcers were incidental findings on physical examination. Patients were asked whether oral ulcers were a recurring problem. Before initiating vitamin B12 therapy, a complete blood count was done and plasma vitamin B12 and folic acid levels were assessed by routine procedures.
# We used one of two therapeutic regimens: • IM injections of vitamin B12 (1000 mcg weekly for the first month, and then 1000 mcg monthly as maintenance therapy) for patients with serum vitamin B12 level below 100 pg/ml, for patients with peripheral neuropathy or macrocytic anemia, and for patients coming from a low socioeconomic level (in Israel, IM vitamin B12 treatment is cheaper than oral vitamin B12). • 2. One sublingual vitamin B12 tablet (1000 mcg) per day. • No other treatment was given for RAS throughout the treatment and follow-up periods. The follow-up period ranged from 3 months to 4 years.
# [6] = system: recurrent aphthous stomatitis (RAS) patients; assay: Double-blind, placebo-controlled, randomized clinical trial of vitamin B12 in RAS; assay type: in vivo, human
# [7] = system: sleep-waking rhythm disorders; settings: 1.5 to 3 mg/day for 8 weeks, n=13; cited from earlier work
# dialysis patients = settings: cited from earlier work
substance,measurement,setting,value
cyanocobalamin,"Carcinogenic, mutagenic or teratogenic potential","[1]; Ellenbogen & Cooper, 1991",no reports attributing carcinogenic or mutagenic or teratogenic potential
same,Cognitive functions,"geriatric patients; 1 mg intramuscular weekly for 1 month, then monthly for minimum 6 months",cognitive recovery in some patients
same,Adverse effects,geriatric patients; 1 mg intramuscular weekly then monthly,no adverse effects were reported
same,Effect on haematological and visual abnormalities,[2],"restored the haematological, but not the visual abnormalities"
hydroxocobalamin,Acne formation (cases),[3],Ten
same,Effect on haematological and visual abnormalities,[2],the visual impairment also improved
vitamin B12 (cobalamin),Clinical response of RAS to vitamin B12 administration,[4]; three patients with low serum vitamin B12,rapid improvement and complete recovery within several weeks
same,Recurrence of RAS at six months' follow up,[4]; three patients,no recurrence of RAS
same,Adverse effects of long-term oral and parenteral supplementation,"[1]; 1-5 mg every fortnight or month, up to at least 5 years, patients with compromised absorption",without any identified adverse effects
same,Adverse effects of excess vitamin B12 intake from food or supplements,"[1]; healthy individuals, EC Scientific Committee on Food opinion",no adverse effects
same,Adverse effects in replacement therapy,[1]; oral or intramuscular dosages between 1-5 mg,no supportive evidence of adverse effects
same,Adverse effects of prolonged oral treatment,"[1]; up to 1000 mcg/day orally, patients with compromised B12 absorption",adverse effects have not been reported
same,Outcome of treatment by initial vitamin B12 level (deficient or borderline vs normal),"[5]; 2 deficient, 3 marginal, 10 normal level patients",no difference in the outcome of treatment
same,"Frequency of RAS during treatment (episodes/month), Mean","[5]; 15 RAS patients, IM 1000 mcg weekly then monthly or sublingual 1000 mcg per day, mean treatment 10.8 ± 9.7 months, before treatment 1.5 ± 1.2",0.1 ± 0.3 episodes/month
same,"Frequency of RAS during treatment (episodes/month), Range","[5]; 15 RAS patients, before treatment range 0.3-4.0",0-1.0 episodes/month
same,Aphthous ulcers in two non-adherent patients once they received regular IM injections,[5]; IM vitamin B12,disappeared completely
same,Patients reporting pronounced reduction in the frequency and severity of RAS episodes,[5]; of 15 patients,four
same,Safety and effectiveness of vitamin B12 therapy for RAS,"[6]; double-blind, placebo-controlled, randomized",confirmed the safety and effectiveness; also recorded: established the safety and effectiveness
same,Dependence of patient outcome on initial level of vitamin B12,"[6]; pain, number of ulcers, duration of outbreak",did not depend on initial level of vitamin B12
same,Adverse effects,[7],no adverse effects recorded
same,Adverse effects,"dialysis patients; 2.5 mg vitamin B12 in multivitamin preparation, 3 years",no adverse effects were reported
same,Serum vitamin B12 levels at the end of the treatment period,"dialysis patients; 106 patients, multivitamin preparation with 2.5 mg vitamin B12 at end of each dialysis period during 3 years",4 times greater than normal
